The target in this assay is T1, G protein-coupled receptor 119 (GPR-119) (Mesocricetus auratus, UniProt A0A1U8CD06).
T1 construct: hamster-derived β-cells containing G protein-coupled receptor 119 (GPR-119), HIT-T15 cells; host or cells: HIT-T15 (hamster pancreatic β-cells)
T1 sequence (A0A1U8CD06 1-334): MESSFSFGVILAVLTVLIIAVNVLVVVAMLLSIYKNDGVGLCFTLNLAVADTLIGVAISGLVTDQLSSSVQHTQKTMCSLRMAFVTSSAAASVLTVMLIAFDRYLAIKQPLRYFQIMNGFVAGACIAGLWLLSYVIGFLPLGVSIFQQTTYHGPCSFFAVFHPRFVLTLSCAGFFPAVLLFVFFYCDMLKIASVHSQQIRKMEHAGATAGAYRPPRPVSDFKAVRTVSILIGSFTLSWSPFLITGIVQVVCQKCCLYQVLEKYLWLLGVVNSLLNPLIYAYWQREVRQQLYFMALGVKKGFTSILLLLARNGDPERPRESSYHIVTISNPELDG
The experiment in a line: Evaluation of cAMP activity in HIT-T15 cells (HTRF cAMP dynamic kit). Type of assay: cell-based, hamster. The note with it: cAMP activation. In a few lines: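 HIT-T15 cells, 60,000/well, treated next day with compound at six concentrations ([…]) for 1 h at 37° C. Lysate cAMP quantified by HTRF competitive immunoassay (D2-cAMP, cryptate anti-cAMP); activity taken as change in FRET signal relative to DMSO.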
(Time-resolved FRET reads energy transfer from a long-lived donor to a nearby acceptor.)

The mark [1] stands for this setting: 1 h at 37° C., six concentrations, read-out: EC50.

Molecules are shown by their SMILES. Counter-ions that a name gives are not always drawn. Like-named read-outs stand apart in the source and are kept apart here.

As a reminder, the EC50 is the concentration giving half of the maximal effect. For the compound `CCc1cnc(N2CCC(COc3ccc(C4=CCC(C(=O)N5CCC[C@H]5C#N)CC4)cc3)CC2)nc1` (stereo partly drawn) [Example 106, (2S)-1-(4-(4-((1-(5-ethylpyrimidin-2-yl)piperidin-4-yl)methoxy)phenyl)cyclohex-3-enecarbonyl)pyrrolidine-2-carbonitrile], the EC50 was 22 nM under setting [1] and no more than 50 nM (read-out: EC50 value).
With `CC(C)c1noc(N2CCC(COc3ccc(C4=CCC(C(=O)NCC(C)(C)CO)CC4)nc3)CC2)n1` (centres unmarked) [Example 47, N-(3-hydroxy-2,2-dimethylpropyl)-4-(5-((1-(3-isopropyl-1,2,4-oxadiazol-5-yl)piperidin-4-yl)methoxy)pyridin-2-yl)cyclohex-3-enecarboxamide], the EC50 under setting [1] stood at 150 nM.
For the compound `CN(CCCO)C(=O)C1CC=C(c2ccc(OCC3CCN(C(=O)OC(C)(C)C)CC3)cc2)CC1` (centres unmarked) [Example 6, tert-butyl 4-((4-(4-((3-hydroxypropyl)(methyl)carbamoyl)cyclohex-1-enyl)phenoxy)methyl)piperidine-1-carboxylate], the EC50 under setting [1] worked out at 38 nM and the EC50 (read-out: EC50 value) is no more than 50 nM.
Compound `CC(C)(C)OC(=O)N1CCC(COc2ccc(C3=CCC(C(=O)N4CCC(=O)CC4)CC3)cc2)CC1` (centres unmarked) [Example 272, tert-butyl 4-((4-(4-(4-oxopiperidine-1-carbonyl)cyclohex-1-enyl)phenoxy)methyl)piperidine-1-carboxylate] had an EC50 (EC50 (nM), 1 h at 37° C., six concentrations) of 33 nM and an EC50 (EC50 value) of no more than 50 nM.
`CCOC(=O)CCNC(=O)C1CC=C(c2ccc(OCC3CCN(c4nc(C(C)C)no4)CC3)c(F)c2)CC1` (centres unmarked) [Example 110, ethyl 3-(4-(3-fluoro-4-((1-(3-isopropyl-1,2,4-oxadiazol-5-yl)piperidin-4-yl)methoxy)phenyl)cyclohex-3-enecarboxamido)propanoate]: the EC50 under setting [1] was found to be 110 nM.
Consider `CC(C)c1noc(N2CCC(COc3ccc(C4=CCC(C(=O)NCCC(=O)N5CCC[C@H]5C#N)CC4)cc3F)CC2)n1` (stereo partly drawn) [Example 140, N-(3-((S)-2-cyanopyrrolidin-1-yl)-3-oxopropyl)-4-(3-fluoro-4-((1-(3-isopropyl-1,2,4-oxadiazol-5-yl)piperidin-4-yl)methoxy)phenyl)cyclohex-3-enecarboxamide], for which the EC50 under setting [1] worked out at 120 nM.
On to `CCc1cnc(N2CCC(COc3ccc(C4=CCC(C(=O)N5CC[C@@H](O)C5)CC4)cc3)CC2)nc1` (stereo partly drawn) [Example 16, (4-(4-((1-(5-ethylpyrimidin-2-yl)piperidin-4-yl)methoxy)phenyl)cyclohex-3-enyl)((R)-3-hydroxypyrrolidin-1-yl)methanone], for which the EC50 is 13 nM under setting [1] and no more than 50 nM (read-out: EC50 value).
Consider `CCc1cnc(N2CCC(COc3ccc(C4=CCC(C(=O)N5CC[C@@H](CO)C5)CC4)cc3)CC2)nc1` (stereo partly drawn) [Example 159, (4-(4-((1-(5-ethylpyrimidin-2-yl)piperidin-4-yl)methoxy)phenyl)cyclohex-3-enyl)((R)-3-(hydroxymethyl)pyrrolidin-1-yl)methanone hydrochloride], for which the EC50 reads like this: under setting [1], 20 nM; (read-out: EC50 value) no more than 50 nM.
Take `CCc1cnc(N2CCC(COc3ccc(C4=CCC(C(=O)N5CCC6(C=Cc7ccccc76)CC5)CC4)cc3)CC2)nc1` (centres unmarked) [Example 228, (4-(4-((1-(5-ethylpyrimidin-2-yl)piperidin-4-yl)methoxy)phenyl)cyclohex-3-enyl)(spiro[indene-1,4′-piperidin]-1′-yl)methanone]: the EC50 under setting [1] stood at 8 nM and the EC50 (read-out: EC50 value) was no more than 50 nM.
As to `CC(C)c1noc(N2CCC(COc3ccc(C4=CCC(C(=O)N5CC[C@@H](F)C5)CC4)cc3)CC2)n1` (stereo partly drawn) [Example 54, ((R)-3-fluoropyrrolidin-1-yl)(4-(4-((1-(3-isopropyl-1,2,4-oxadiazol-5-yl)piperidin-4-yl)methoxy)phenyl)cyclohex-3-enyl)methanone], the EC50 by setting is: under setting [1], 42 nM; (read-out: EC50 value) no more than 50 nM.
`CCc1cnc(N2CCC(COc3ccc(C4=CCC(C(=O)N5CC=CC5)CC4)cc3)CC2)nc1` (centres unmarked) [Example 235, (2,5-dihydro-1H-pyrrol-1-yl)(4-(4-((1-(5-ethylpyrimidin-2-yl)piperidin-4-yl)methoxy)phenyl)cyclohex-3-enyl)methanone]: the EC50 under setting [1] came to 24 nM.
With `CCc1cnc(N2CCC(COc3ccc(C4=CCC(C(=O)N5CCCC5)CC4)cc3)CC2)nc1` (centres unmarked) [Example 166, (4-(4-((1-(5-ethylpyrimidin-2-yl)piperidin-4-yl)methoxy)phenyl)cyclohex-3-enyl)(pyrrolidin-1-yl)methanone hydrochloride], under setting [1], the EC50 was 22 nM.
As for `CC(C)c1noc(N2CCC(COc3ccc(C4=CCC(C(=O)NCC(=O)N5CCOCC5)CC4)cc3F)CC2)n1` (centres unmarked) [Example 112, 4-(3-fluoro-4-((1-(3-isopropyl-1,2,4-oxadiazol-5-yl)piperidin-4-yl)methoxy)phenyl)-N-(2-morpholino-2-oxoethyl)cyclohex-3-enecarboxamide], the EC50 under setting [1] came to 70 nM.
With `CCc1cnc(N2CCC(COc3ccc(C4=CCC(C(=O)N5CCC(F)(F)C5)CC4)cc3)CC2)nc1` (centres unmarked) [Example 258, (3,3-difluoropyrrolidin-1-yl)(4-(4-((1-(5-ethylpyrimidin-2-yl)piperidin-4-yl)methoxy)phenyl)cyclohex-3-enyl)methanone], the EC50 reads like this: under setting [1], 10 nM; (read-out: EC50 value) no more than 50 nM.
On to `CC(C)(C)OC(=O)N1CCC(COc2ccc(C3=CCC(C(=O)N4CCC[C@H]4C(N)=O)CC3)cc2F)CC1` (stereo partly drawn) [Example 107, tert-butyl 4-((4-(4-((S)-2-carbamoylpyrrolidine-1-carbonyl)cyclohex-1-enyl)-2-fluorophenoxy)methyl)piperidine-1-carboxylate], for which the EC50 reads like this: under setting [1], 35 nM; (read-out: EC50 value) no more than 50 nM.
As to `CC(C)(C)OC(=O)N1CCC(COc2ccc(C3=CCC(C(=O)N4CCC5(C=Cc6ccccc65)CC4)CC3)cc2)CC1` (centres unmarked) [Example 264, tert-butyl 4-((4-(4-(spiro[indene-1,4′-piperidin]-1′-ylcarbonyl)cyclohex-1-enyl)phenoxy)methyl)piperidine-1-carboxylate], the EC50 under setting [1] stood at 18 nM.
On to `CC(C)c1noc(N2CCC(COc3ccc(C4=CCC(C(=O)N5CCOCC5)CC4)nc3)CC2)n1` (centres unmarked) [Example 100, (4-(5-((1-(3-isopropyl-1,2,4-oxadiazol-5-yl)piperidin-4-yl)methoxy)pyridin-2-yl)cyclohex-3-enyl)(morpholino)methanone], for which the EC50 under setting [1] was 95 nM.
With `CC(C)c1noc(N2CCC(COc3ccc(C4=CCC(C(=O)N5CCN(C6CC6)CC5)CC4)cc3)CC2)n1` (centres unmarked) [Example 89, (4-cyclopropylpiperazin-1-yl)(4-(4-((1-(3-isopropyl-1,2,4-oxadiazol-5-yl)piperidin-4-yl)methoxy)phenyl)cyclohex-3-enyl)methanone], the EC50 runs as follows: under setting [1], 21 nM; (read-out: EC50 value) no more than 50 nM.
For the compound `CCc1cnc(N2CCC(COc3ccc(C4=CCC(C(=O)NC(CO)CO)CC4)cc3)CC2)nc1` (centres unmarked) [Example 15, N-(1,3-dihydroxypropan-2-yl)-4-(4-((1-(5-ethylpyrimidin-2-yl)piperidin-4-yl)methoxy)phenyl)cyclohex-3-enecarboxamide], under setting [1], the EC50 worked out at 370 nM.
With `CCc1cnc(N2CCC(COc3ccc(C4=CCC(C(=O)N5C/C(=N\OC)C(CO)(CO)C5)CC4)cc3)CC2)nc1` (centres unmarked) [Example 253, (Z)-(3,3-bis(hydroxymethyl)-4-(methoxyimino)pyrrolidin-1-yl)(4-(4-((1-(5-ethylpyrimidin-2-yl)piperidin-4-yl)methoxy)phenyl)cyclohex-3-enyl)methanone], under setting [1], the EC50 worked out at 9 nM.
As for `CC(C)c1noc(N2CCC(COc3ccc(C4=CCC(C(=O)NCC(F)F)CC4)cc3)CC2)n1` (centres unmarked) [Example 51, N-(2,2-difluoroethyl)-4-(4-((1-(3-isopropyl-1,2,4-oxadiazol-5-yl)piperidin-4-yl)methoxy)phenyl)cyclohex-3-enecarboxamide], the EC50 under setting [1] came out at 66 nM.
With `CCc1cnc(N2CCC(COc3ccc(C4=CCC(C(=O)N5CC[C@H](CO)C5)CC4)cc3)CC2)nc1` (stereo partly drawn) [Example 158, (4-(4-((1-(5-ethylpyrimidin-2-yl)piperidin-4-yl)methoxy)phenyl)cyclohex-3-enyl)((S)-3-(hydroxymethyl)pyrrolidin-1-yl)methanone hydrochloride], under setting [1], the EC50 was found to be 25 nM.
`CC(C)(C)OC(=O)N1CCC(COc2ccc(C3=CCC(C(=O)N4CCC(=NO)CC4)CC3)cc2)CC1` (centres unmarked) [Example 271, tert-butyl 4-((4-(4-(4-(hydroxyimino)piperidine-1-carbonyl)cyclohex-1-enyl)phenoxy)methyl)piperidine-1-carboxylate]: the EC50 under setting [1] came out at 13 nM and the EC50 (read-out: EC50 value) was no more than 50 nM.
With `CCO/N=C1/CCN(C(=O)C2CC=C(c3ccc(OCC4CCN(c5ncc(CC)cn5)CC4)cc3)CC2)C1` (centres unmarked) [Example 269, (3-(ethoxyimino)pyrrolidin-1-yl)(4-(4-((1-(5-ethylpyrimidin-2-yl)piperidin-4-yl)methoxy)phenyl)cyclohex-3-enyl)methanone], the EC50 by setting is: under setting [1], 35 nM; (read-out: EC50 value) no more than 50 nM.
On to `CCc1cnc(N2CCC(COc3ccc(C4=CCC(C(=O)N5CCC[C@H]5C(N)=O)CC4)cc3)CC2)nc1` (stereo partly drawn) [Example 105, (2S)-1-(4-(4-((1-(5-ethylpyrimidin-2-yl)piperidin-4-yl)methoxy)phenyl)cyclohex-3-enecarbonyl)pyrrolidine-2-carboxamide], for which the half-maximal effective concentration (EC50) is 43 nM under setting [1] and no more than 50 nM (read-out: EC50 value).

The values are drawn from patent US9758527B2, “Cyclohexene derivative, preparation method therefor, and pharmaceutical composition for preventing or treating metabolic diseases, containing same as active ingredient” (HYUNDAI PHARM CO., LTD., priority 2014, dated 2017).
